Values belong to the compound of their own block, whether it stands above or below them.
Legend:
[1] = system: spontaneous mammary tumors; conditions: 10 mg by gavage; X-ray imaging about two hours after; mice with spontaneous tumors; same mice before treatment showed no foci
Text: As described above, oxidative foci or tumors may be identified by X-ray radiographic imaging of animals following administration of an indigogenic compound of the present invention. The radio-opaque indigo-like product formed and deposited with residence time in FROS-containing tumor tissues may then be detected.
In this example, female C3H/HeN mice were obtained as multiparous retired breeders (i.e., after 3 to 4 litters) that were positive for a mammary tumor virus. […] Mice showing spontaneous tumors were given 10 mg of 5-Iodo-Indoxyl-3′,5′-Diiodo-4′-hydroxy ether substrate (product of Example 4) by gavage. These mice were then subjected to X-ray imaging of the tumors about two hours after being fed the iodo-indigogenic compound. […] When developed, the X-ray film appears dark in areas where more transmission occurs and light in areas where less transmission occurs.

[2] = system: sites of the wound or injury; conditions: mice administered the compound, small injuries (cuts, scratches); data not shown
thyroid hormone activity = conditions: cited from earlier work
[3] = Cleavage of the C—C bond during the oxidative dehalogenation reaction; format: physicochemical; conditions: presence of free radicals and/or oxidative agents
Text: It has also been discovered that other types of bonds or linkages may also be cleaved by oxidative or free radical-mediated dehalogenation of the phenol ring. For example, as described herein, it has now been observed that a carbonyl linkage, a nitrogen linkage, a sulfinyl linkage and possibly a C—C bond on the phenol ring may also be cleaved by the oxidative dehalogenation reaction. These bonds are also considered stable, and their cleavage in connection with the dehalogenation reaction is surprising as well. One caveat with the C—C bond or linkage is that depending on the particular starting compound structure and the substituents or groups attached to the halogenated phenol ring via the C—C bond, the C—C bond or linkage may or may not be generally cleaved during or following the dehalogenation reaction (see below). […] However, other compounds do become cleaved. It is important to note that whether a C—C bond of a particular starting compound is “cleavable,” or becomes cleaved, may not be all-or-nothing (i.e., the C—C bond may be considered non-cleavable even though a small or minute amount of cleavage may occur, and vice versa). Thus, the amount or percentage of cleavage may be partial with the alternatively cleaved or non-cleaved product being possibly undetected or minute. […]

[4] = Spontaneous dehalogenation and ether cleavage in buffered aqueous solution exposed to sunlight; format: physicochemical; conditions: about 1 mM in carbonate buffer (pH 8.0), sunlight for about one hour; yellow/orange solution, iodide released
Text: In contrast to reductive deiodination, spontaneous dehalogenation (e.g., deiodination) of a halogentated phenol ring in the presence of an oxidizing agent(s) and/or free radical(s) with cleavage of a chemical linkage, such as an ether linkage, etc., between the phenol ring and a conjugated compound has not been described. According to the present invention, cleavage of the ether linkage between the aromatic rings of thyroid hormone may form visibly colored quinone and iodine-containing products in buffered aqueous solutions in vitro, and this ether cleavage reaction may be accelerated under basic pH conditions and with exposure to ionizing radiation or light. These conditions favor the increased formation of oxidizing agents and/or free radicals, which are believed to promote the reaction. […] A quinone and an iodotyrosine product are also formed by cleavage of the ether linkage during the reaction. According to embodiments of the present invention, a spontaneous reaction of dehalogenation and cleavage of a chemical bond is proposed for the targeted delivery and release of a drug compound at or to sites of inflammation or disease. This spontaneous reaction is further proposed as a basis for scavenging free radicals and/or oxidative agents (FROS) as well as for the creation of a detectable compound(s) that may be used for diagnostic purposes.

Compound: Oc1c(I)cc(Oc2c[nH]c3ccc(I)cc23)cc1I [5-Iodo-Indolyl-3′,5′-Diiodo-4′-hydroxyl-p-Phenol Ether]
radio-opaque tumor regions or foci by X-ray [1]: radio-opaque tumor regions or foci
X-ray detection at sites of wound or injury [2]: strong detection was observed at the sites of the wound or injury

Compound: N[C@@H](Cc1ccc(Oc2cc(I)c(O)c(I)c2)c(I)c1)C(=O)O [Reverse T3, 3,3′,5′-triiodothyronine]
thyroid hormone activity (thyroid hormone activity): no measurable thyroid hormone activity

cleavage of C—C bond with the dehalogenation reaction [3]: generally not to be cleaved
cleavage of C—C bond with the dehalogenation reaction ([3]; listed as MIT): generally not be cleaved
Compound: N[C@@H](Cc1ccc(O)c(I)c1)C(=O)O [mono-iodotyrosine, 3-iodo-4-hydroxy-L-phenylalanine]

Compound: N[C@@H](Cc1cc(I)c(Oc2cc(I)c(O)c(I)c2)c(I)c1)C(=O)O [thyroxine]
cleavage of the ether linkage [4]: the ether linkage is broken spontaneously
